The record followed here is ChEMBL document CHEMBL5728485, “Biaryloxy derivatives as TTX-S blockers” (2021).

As usually defined, the IC50 is the concentration that inhibits the measured activity by half.

This assay deals with Sodium channel protein type 9 subunit alpha (Homo sapiens, UniProt Q15858). Put plainly: EFS-FRET Assay: This screen is used to determine the effects of compounds on human Nav1.7 channels, utilizing electrical field stimulation (EFS) system in 96-well plate format on FDSS (Hamamatsu Photonics) platform. The changes of membrane potential are monitored with FRET dye pair, DiSBAC2(3) and PTS 18.
Chain of Sodium channel protein type 9 subunit alpha (Q15858 whole entry): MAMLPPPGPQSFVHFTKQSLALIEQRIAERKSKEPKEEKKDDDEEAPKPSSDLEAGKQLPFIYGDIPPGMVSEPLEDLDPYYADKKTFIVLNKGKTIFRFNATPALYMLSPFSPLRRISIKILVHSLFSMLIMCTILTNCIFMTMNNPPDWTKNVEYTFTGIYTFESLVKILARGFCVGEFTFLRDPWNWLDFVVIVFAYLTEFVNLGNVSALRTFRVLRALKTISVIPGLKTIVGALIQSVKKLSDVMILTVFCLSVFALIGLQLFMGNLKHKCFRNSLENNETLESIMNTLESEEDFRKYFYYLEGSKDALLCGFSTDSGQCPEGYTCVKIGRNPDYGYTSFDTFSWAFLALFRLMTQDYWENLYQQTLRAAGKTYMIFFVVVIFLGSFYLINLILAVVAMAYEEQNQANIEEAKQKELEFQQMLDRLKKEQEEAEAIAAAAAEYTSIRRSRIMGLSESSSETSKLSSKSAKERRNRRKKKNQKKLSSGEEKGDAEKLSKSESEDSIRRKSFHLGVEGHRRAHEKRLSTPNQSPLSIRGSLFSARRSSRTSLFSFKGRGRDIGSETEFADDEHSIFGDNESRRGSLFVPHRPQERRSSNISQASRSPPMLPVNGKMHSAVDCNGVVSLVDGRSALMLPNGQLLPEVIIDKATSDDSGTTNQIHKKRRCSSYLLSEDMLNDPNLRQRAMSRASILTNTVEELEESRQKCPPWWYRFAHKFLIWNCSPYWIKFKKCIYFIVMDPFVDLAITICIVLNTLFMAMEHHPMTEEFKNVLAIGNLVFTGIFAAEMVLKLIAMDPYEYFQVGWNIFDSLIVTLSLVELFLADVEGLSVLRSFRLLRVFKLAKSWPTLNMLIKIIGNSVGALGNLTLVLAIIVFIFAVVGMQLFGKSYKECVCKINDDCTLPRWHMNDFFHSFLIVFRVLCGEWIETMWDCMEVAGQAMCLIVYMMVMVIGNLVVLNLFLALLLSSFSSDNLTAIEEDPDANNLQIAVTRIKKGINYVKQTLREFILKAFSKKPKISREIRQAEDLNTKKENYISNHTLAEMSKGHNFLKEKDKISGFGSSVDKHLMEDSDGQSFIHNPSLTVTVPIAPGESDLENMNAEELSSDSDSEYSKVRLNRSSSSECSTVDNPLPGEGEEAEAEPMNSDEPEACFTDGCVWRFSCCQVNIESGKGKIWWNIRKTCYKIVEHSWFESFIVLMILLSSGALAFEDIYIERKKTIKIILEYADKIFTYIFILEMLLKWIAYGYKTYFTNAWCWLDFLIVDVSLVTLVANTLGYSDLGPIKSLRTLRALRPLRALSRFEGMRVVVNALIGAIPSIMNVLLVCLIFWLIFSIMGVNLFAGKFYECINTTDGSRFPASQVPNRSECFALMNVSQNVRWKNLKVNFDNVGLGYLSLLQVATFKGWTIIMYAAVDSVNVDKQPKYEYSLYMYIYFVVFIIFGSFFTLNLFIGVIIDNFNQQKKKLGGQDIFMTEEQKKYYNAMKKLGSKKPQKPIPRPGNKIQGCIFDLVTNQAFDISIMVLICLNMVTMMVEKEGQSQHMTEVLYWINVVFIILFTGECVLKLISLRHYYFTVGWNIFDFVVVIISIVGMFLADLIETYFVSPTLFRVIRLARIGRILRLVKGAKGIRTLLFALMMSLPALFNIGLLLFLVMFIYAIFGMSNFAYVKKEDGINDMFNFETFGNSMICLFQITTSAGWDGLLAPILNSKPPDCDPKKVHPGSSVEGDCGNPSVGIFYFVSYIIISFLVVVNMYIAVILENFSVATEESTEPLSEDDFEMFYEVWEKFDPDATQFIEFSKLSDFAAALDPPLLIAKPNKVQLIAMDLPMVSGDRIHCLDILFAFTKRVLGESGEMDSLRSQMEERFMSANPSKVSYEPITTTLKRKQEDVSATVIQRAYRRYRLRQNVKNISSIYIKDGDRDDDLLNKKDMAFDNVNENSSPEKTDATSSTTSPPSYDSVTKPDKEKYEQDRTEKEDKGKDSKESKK
On to `CS(=O)(=O)NC(=O)c1ccc(COc2cccc(-c3ccc(OCC4CC4)cn3)c2)c(F)c1`, for which the IC50 was under 500 nM. The molecule `Cc1cc(-c2cccc(OCc3ccc(C(=O)NS(C)(=O)=O)cc3)c2)cnc1OCC1CC1` came in with an IC50 of under 500 nM.

As for `CS(=O)(=O)NC(=O)c1ccc(COc2cccc(-c3ncc(OCC4CC4)cn3)c2)c(F)c1`, the IC50 was under 500 nM. Turning to `O=C(NS(=O)(=O)C1CC1)c1ccc(COc2cccc(-c3ccc(OCC4CCOCC4)nc3)c2)cc1`, the IC50 is under 500 nM. As for `CS(=O)(=O)NC(=O)c1ccc(COc2cc(F)cc(-c3ccnc(OCC4CC4)c3)c2)cc1`, the figure is under 500 nM. `CN(C)C(=O)COc1cc(OCC2CC2)cc(-c2cc(F)cc(OCc3ccc(C(=O)NS(C)(=O)=O)cc3F)c2)c1` yielded an IC50 of under 500 nM. `CN(C)C(=O)c1cc(-c2cccc(OCc3ccc(C(=O)NS(C)(=O)=O)cc3F)c2)ccc1OCC1CC1` came in with an IC50 of under 500 nM. Consider `CS(=O)(=O)NC(=O)c1ccc(COc2cccc(-c3cnc(OCC4CCC4)cn3)c2)c(F)c1`, for which the IC50 was under 500 nM. As for `CS(=O)(=O)NC(=O)c1ccc(COc2cccc(-c3ncc(OCC4CC4)cc3F)c2)cc1`, the figure is under 500 nM. In the case of `CS(=O)(=O)NC(=O)c1ccc(COc2ccc(F)c(-c3ccc(OCC4CC4)nc3)c2)cc1`, the IC50 is under 500 nM.

Regarding `CS(=O)(=O)NC(=O)c1ccc(COc2cc(-c3cccnc3)cc(-c3ccc(OCC4CC4)nc3)c2)cc1`, the IC50 is under 500 nM. Molecule `O=C(NS(=O)(=O)CC1CC1)c1ccc(COc2cc(F)cc(-c3ccc(OCC4CC4)nc3)c2)cc1` displayed an IC50 of under 500 nM. The figure for `CS(=O)(=O)NC(=O)c1ccc(COc2cc(-c3ccc(OCC4CC4)nc3)cc(C3CC3)c2)cc1` is under 500 nM; for `CS(=O)(=O)NC(=O)c1ccc(COc2cc(F)cc(-c3ncc(OCC4CCC4)cn3)c2)cc1` it is under 500 nM; for `CS(=O)(=O)NC(=O)c1ccc(COc2cccc(-c3ccc(OCC4CCC4)nc3)c2)cc1` it is under 500 nM. `CS(=O)(=O)NC(=O)c1ccc(COc2cc(F)cc(-c3ccc(OCC4CC4)cn3)c2)cc1` gave an IC50 of under 500 nM. The molecule `CS(=O)(=O)NC(=O)c1cc(Cl)c(COc2cccc(-c3ccc(OCC4CC4)nc3)c2)cc1F` registered an IC50 of under 500 nM.

In turn, `O=C(NS(=O)(=O)C1CC1)c1ccc(COc2cccc(-c3cnc(OCC4CC4)cn3)c2)cc1` gave an IC50 of under 500 nM. On to `O=C(NS(=O)(=O)C1CC1)c1ccc(COc2cccc(-c3ncc(OCC4CC4)cn3)c2)cc1`, for which the IC50 is under 500 nM. Take `O=C(NS(=O)(=O)c1cccs1)c1ccc(COc2cccc(-c3ccc(OCC4CC4)nc3)c2)cc1`: the IC50 is under 500 nM.

Turning to `Cc1cc(OCC2CC2)ncc1-c1cc(F)cc(OCc2ccc(C(=O)NS(C)(=O)=O)cc2)c1`, the half-maximal inhibitory concentration (IC50) is under 500 nM. Molecule `Cc1c(OCC2CC2)ncnc1-c1cccc(OCc2ccc(C(=O)NS(C)(=O)=O)cc2)c1` gave an IC50 of under 500 nM. Turning to `CCOC(=O)N1CCC(COc2ccc(-c3cccc(OCc4ccc(C(=O)NS(C)(=O)=O)cc4)c3)cn2)CC1`, the IC50 was under 500 nM. The figure for `CS(=O)(=O)NC(=O)c1ccc(COc2cc(F)cc(-c3ccc(OCC4CC4)nc3)c2)cc1` is under 500 nM. The figure for `O=C(NS(=O)(=O)c1cccs1)c1ccc(COc2cc(F)cc(-c3ccc(OCC4CC4)nc3)c2)cc1` is under 500 nM. In the case of `CNC(=O)c1cc(-c2cccc(OCc3ccc(C(=O)NS(C)(=O)=O)cc3F)c2)ccc1OCC1CC1`, the IC50 is under 500 nM. Regarding `CCS(=O)(=O)NC(=O)c1ccc(COc2cccc(-c3ccc(OCC4CC4)nc3)c2)c(F)c1`, the IC50 is under 500 nM. In turn, `Cn1cc(-c2cc(OCc3ccc(C(=O)NS(C)(=O)=O)cc3)cc(-c3ccc(OCC4CC4)nc3)c2)cn1` registered an IC50 of under 500 nM. `CS(=O)(=O)NC(=O)c1ccc(COc2cc(-c3cncnc3)cc(-c3ccc(OCC4CC4)nc3)c2)cc1`: the concentration for half-maximal inhibition (IC50) is under 500 nM. Consider `CS(=O)(=O)NC(=O)c1ccc(COc2cc(F)cc(-c3ccc(OCC4CC4)nc3)c2)c(F)c1`, for which the IC50 is under 500 nM. As for `O=C(NS(=O)(=O)C1CC1)c1ccc(COc2ccc(F)c(-c3ccc(OCC4CC4)nc3)c2)cc1`, the figure is under 500 nM. As for `CS(=O)(=O)NC(=O)c1ccc(COc2cc(-c3ccccc3)cc(-c3ccc(OCC4CC4)nc3)c2)cc1`, the figure is under 500 nM.

The molecule `O=C(NS(=O)(=O)C1CC1)c1ccc(COc2cc(F)cc(-c3ccc(OCC4CC4)nc3)c2)cc1` showed an IC50 of under 500 nM.

The molecule `O=C(NS(=O)(=O)C1CC1)c1ccc(COc2cc(-c3ccc(OCC4CC4)nc3)ccn2)cc1` came in with an IC50 of under 500 nM. `CS(=O)(=O)NC(=O)c1ccc(COc2cccc(-c3cccc(OCC4CC4)n3)c2)c(F)c1` returned an IC50 of under 500 nM. For `O=C(NS(=O)(=O)C1CC1)c1cc(Cl)c(COc2cccc(-c3ccc(OCC4CC4)nc3)c2)cc1F`, the IC50 is under 500 nM. `O=C(NS(=O)(=O)C(F)(F)F)c1ccc(COc2cccc(-c3ccc(OCC4CC4)nc3)c2)cc1` returned an IC50 of under 500 nM. Consider `CS(=O)(=O)NC(=O)c1ccc(COc2cccc(-c3ccnc(OCC4CC4)c3)c2)c(F)c1`, for which the IC50 was under 500 nM.

For the molecule `Cc1cc(OCC2CC2)cnc1-c1cccc(OCc2ccc(C(=O)NS(C)(=O)=O)cc2F)c1`, the IC50 is under 500 nM.

Molecule `O=C(NS(=O)(=O)c1nccs1)c1ccc(COc2cccc(-c3ccc(OCC4CC4)nc3)c2)c(F)c1` yielded an IC50 of under 500 nM.

In the case of `CS(=O)(=O)NC(=O)c1ccc(COc2cccc(-c3cncc(OCC4CC4)c3)c2)cc1`, the IC50 was under 500 nM. `O=C(NS(=O)(=O)C(F)(F)F)c1ccc(COc2cc(F)cc(-c3ccc(OCC4CC4)nc3)c2)cc1` yielded an IC50 of under 500 nM.

Molecule `CN(CCO)Cc1cc(OCC2CC2)cc(-c2cc(F)cc(OCc3ccc(C(=O)NS(C)(=O)=O)cc3F)c2)c1` returned an IC50 of under 500 nM. Take `O=C(NS(=O)(=O)CC1CC1)c1ccc(COc2cccc(-c3ccc(OCC4CC4)nc3)c2)c(F)c1`: the half-maximal inhibitory concentration (IC50) is under 500 nM. Take `CS(=O)(=O)NC(=O)c1ccc(COc2cccc(-c3ccc(OCC4CC4)nc3)c2)cc1F`: the IC50 is under 500 nM. As for `CS(=O)(=O)NC(=O)c1ccc(COc2cc(F)cc(-c3ncc(OCC4CC4)cc3F)c2)cc1`, the figure is under 500 nM.

As to `COc1cc(C(=O)NS(C)(=O)=O)ccc1COc1cccc(-c2ccc(OCC3CC3)nc2)c1`, the IC50 was under 500 nM. `CN(CC1CC1)c1cc(-c2cccc(OCc3ccc(C(=O)NS(C)(=O)=O)cc3F)c2)ccn1`: the half-inhibitory concentration (IC50) was under 500 nM.

As to `CS(=O)(=O)NC(=O)c1ccc(COc2cccc(-c3cnc(OCC4CC4)cn3)c2)cc1`, the IC50 was under 500 nM. In turn, `Cc1cc(-c2cccc(OCc3ccc(C(=O)NS(C)(=O)=O)cc3F)c2)cnc1OCC1CC1` gave an IC50 of under 500 nM. The molecule `CS(=O)(=O)NC(=O)c1ccc(COc2cc(F)cc(-c3cc(OCC4CC4)cc(C(=O)N4CCOCC4)c3)c2)c(F)c1` yielded an IC50 of under 500 nM. The molecule `CS(=O)(=O)NC(=O)c1ccc(COc2cc(-c3ccc(OCC4CC4)nc3)ccc2F)cc1` yielded a half-maximal inhibitory concentration (IC50) of under 500 nM. The molecule `Cc1cc(OCC2CCC2)cnc1-c1cccc(OCc2ccc(C(=O)NS(C)(=O)=O)cc2F)c1` returned an IC50 of under 500 nM. The molecule `CS(=O)(=O)NC(=O)c1ccc(COc2cccc(-c3cccc(OCC4CC4)n3)c2)cc1` had an IC50 of under 500 nM. `CS(=O)(=O)NC(=O)c1ccc(COc2cccc(-c3ccc(OCC4CCC(F)(F)CC4)nc3)c2)cc1` returned an IC50 of under 500 nM. For the molecule `Cc1cc(OCC2CC2)ncc1-c1cccc(OCc2ccc(C(=O)NS(C)(=O)=O)cc2F)c1`, the IC50 was under 500 nM.
